# Measured values published in paper PMC8016998, “Identification of potential therapeutic antimicrobial peptides against Acinetobacter baumannii in a mouse model of pneumonia” (Scientific Reports, 2021).
# No end group written: not given here.
# Test: LD50 (preliminary data)
# Format: in vivo
# Details: intratracheal administration
sequence,measurement,value
FIHHIIGGLFSAGKAIHRLIRRRRR [TP4],LD50,10 to 20 mg/kg
